Structures are written as SMILES.

Assay [1] is described as follows: Growth inhibition of human SK/LapR1.0 cells at 5 uM incubated for 72 hrs by ATP detection based luminescent assay. It counts as functional. The settings on record: read-out: GI.
A further assay is filed under the species Homo sapiens. The experiment in a line: Inhibition of HSP70 (unknown origin) at 200 uM pre-incubated for 30 mins followed by ATP addiction and measured after 3 hrs by malachite green reagent based colorimetric assay.
The nature of assay [2]: Growth inhibition of human BT474 cells at 5 uM incubated for 72 hrs by ATP detection based luminescent assay. The settings on record: BT-474, 72 h, read-out: GI. It counts as functional.
A short description of assay [3]: Growth inhibition of human SKBR3 cells at 5 uM incubated for 72 hrs by ATP detection based luminescent assay. The following applies: SK-BR-3, 72 h, read-out: GI. In kind it is functional.
A further assay relates to MDA-MB-453. Briefly: Growth inhibition of human MDA-MB-453 cells at 5 uM incubated for 72 hrs by ATP detection based luminescent assay. In kind it is functional. The following applies: MDA-MB-453, 72 h, read-out: GI.
Assay [4] in a line: Growth inhibition of human BT/LapR1.0 cells at 5 uM incubated for 72 hrs by ATP detection based luminescent assay. It counts as functional. The settings on record: read-out: GI.
Another assay deals with MDA-MB-361. The experiment in a line: Growth inhibition of human MDA-MB-361 cells at 5 uM incubated for 72 hrs by ATP detection based luminescent assay. It counts as functional. The settings on record: MDA-MB-361, 72 h, read-out: GI.

For `CN(Cc1ccc(C#N)cc1)C1CCN(Cc2cnc(Cl)s2)CC1`, in assay [1], the inhibition of growth at 5 µM was found to be 7.5%. In the assay filed under Homo sapiens, the inhibition was 11.3%.
For `COc1nccc(N2CCC(N(C)Cc3ccc(C)cc3)CC2)n1`, the inhibition of growth at 5 µM was 61.5% in assay [2]; 13.5% in assay [1]; 19.7% in assay [3]; 68.9% in the assay with MDA-MB-453; 58.8% in assay [4]; 30.1% in the assay on MDA-MB-361.
Turning to `CN(Cc1c(F)cccc1Cl)C1CCN(Cc2cnc(Cl)s2)CC1`, the inhibition of growth at 5 µM in assay [1] was found to be 1.5%; in assay [3], 9.8%; in assay [4], 3.2%.
With `CSc1nccc(N2CCC(N(C)Cc3ccc(Cl)c(Cl)c3)CC2)n1`, in the assay with MDA-MB-453, the inhibition of growth at 5 µM was 60%.
As to `CN(Cc1ccc(Cl)c(Cl)c1)C1CCN(Cc2cnc(Cl)s2)CC1`, the inhibition of growth at 5 µM in assay [1] is 5.3%.
In the assay listed under Homo sapiens, `CSc1ncc(CN2CCC(N(C)Cc3ccc(Cl)c(Cl)c3)CC2)s1` showed an inhibition of 10.7%.
Regarding `CCOc1ncc(CN2CCC(N(C)Cc3ccc(F)cc3)CC2)s1`, in assay [3], the inhibition of growth at 5 µM is 26%.
For the compound `CCOc1ncc(CN2CCC(N(C)Cc3c(Cl)cccc3Cl)CC2)s1`, the inhibition of growth at 5 µM in assay [1] came to 5.1%.
As for `CCOc1ncc(CN2CCC(N(C)Cc3ccccc3Cl)CC2)s1`, the inhibition of growth at 5 µM in assay [1] came to 0.6%.
Same read-out and setting: the result for `COc1cc(N2CCC(N(C)Cc3ccccc3Cl)CC2)ncn1` reads 29%.
Regarding `Fc1ccc(CNC2CCN(Cc3cnc(Cl)s3)CC2)cc1`, the inhibition of growth at 5 µM worked out at 70% in assay [2]; 40.4% in assay [1]; 37.8% in assay [3]; 72.4% in the assay with MDA-MB-453; 66.3% in assay [4]; 36.3% in the assay on MDA-MB-361.
For `CN(Cc1c(Cl)cccc1Cl)C1CCN(Cc2cnc(Cl)s2)CC1`, the inhibition of growth at 5 µM was found to be 70% in assay [2]; 4.5% in assay [1]; 37.8% in assay [3]; 72.4% with MDA-MB-453; 66.3% in assay [4]; 36.3% in the assay on MDA-MB-361.
With `CCOc1ncc(CN2CCC(N(C)Cc3ccccc3C#N)CC2)s1`, the inhibition of growth at 5 µM in assay [1] turned out to be 7.2%.
The same measure, in the same setting: the result for `CSc1ncc(CN2CCC(N(C)Cc3cccc(F)c3)CC2)s1` reads 2.1%.
As for `CSc1ncc(CN2CCC(N(C)Cc3ccccc3C)CC2)s1`, the values for the inhibition of growth at 5 µM in assay [1] and in assay [4] were 6.9% and 1.4%, respectively.
Turning to `CCOc1ncc(CN2CCC(N(C)Cc3ccc(Cl)cc3Cl)CC2)s1`, in assay [1], the inhibition of growth at 5 µM is 12%. The compound also had an inhibition in the assay filed under Homo sapiens of 4.5%.
With `Clc1cccc(CNC2CCN(Cc3cnc(Cl)s3)CC2)c1`, the inhibition of growth at 5 µM in assay [2] stood at 3.8%; in assay [1] it was 4.1%; in the assay on MDA-MB-453, 2.4%; in assay [4], 7.2%; with MDA-MB-361 it was 3.2%.
As for `CSc1nccc(N2CCC(N(C)Cc3cccc(F)c3)CC2)n1`, the inhibition of growth at 5 µM in assay [2] worked out at 67.1%; in assay [1], 35.2%; in assay [3], 32.6%; in the assay on MDA-MB-453 it was 66.2%; in assay [4] it was 63.9%; in the assay with MDA-MB-361, 50.4%.
On to `COc1cc(N2CCC(N(C)Cc3cc(Cl)ccc3Cl)CC2)ncn1`, for which the inhibition of growth at 5 µM in assay [2] amounted to 5.4%; in assay [1], 9.4%; in assay [3], 5.2%; with MDA-MB-453, 9.4%; in assay [4], 5.6%; with MDA-MB-361 it was 8.4%.
On to `CCOc1ncc(CN2CCC(N(C)Cc3cccc(Cl)c3)CC2)s1`, for which the inhibition of growth at 5 µM in assay [1] turned out to be 5.2%.
Turning to `COc1nccc(N2CCC(N(C)Cc3ccc(C#N)cc3)CC2)n1`, the inhibition of growth at 5 µM worked out at 60.4% in assay [2]; 16.6% in assay [1]; 31.7% in assay [3]; 66.2% in the assay on MDA-MB-453; 58.1% in assay [4]; 27.7% in the assay on MDA-MB-361.
As to `CS(=O)(=O)CCNCc1ccc(-c2ccc3ncnc(Nc4ccc(OCc5cccc(F)c5)c(Cl)c4)c3c2)o1` [LAPATINIB], the inhibition of growth at 5 µM is 79% in assay [3] and 18% in assay [4].
For `COc1cc(N2CCC(N(C)Cc3ccc(F)cc3)CC2)ncn1`, the inhibition of growth at 5 µM worked out at 7.8% in assay [2]; 5.7% in assay [1]; 7.6% in assay [3]; 5% in the assay with MDA-MB-453; 8.1% in assay [4]; 4.9% with MDA-MB-361.
In the assay filed under Homo sapiens, `COc1ccc(-c2nc(-c3cc(C(F)(F)F)cc(C(F)(F)F)c3)n(Cc3ccc(C(N)=O)cc3)c2-c2ccc(OC)cc2)cc1` had an inhibition of 53.1%.
As for `CSc1nccc(N2CCC(N(C)Cc3ccc(C)cc3)CC2)n1`, the inhibition of growth at 5 µM is 69.2% in assay [2]; 42% in assay [1]; 38.9% in assay [3]; 66.6% in the assay on MDA-MB-453; 65.8% in assay [4]; 55.7% in the assay on MDA-MB-361.
Take `Cc1ccc(CN(C)C2CCN(Cc3cnc(Cl)s3)CC2)cc1`: the figures for the inhibition of growth at 5 µM in assay [1] and in assay [4] were 8.4% and 16%, respectively.
On to `CN(Cc1ccc(F)cc1)C1CCN(Cc2cnc(Cl)s2)CC1`, for which the inhibition of growth at 5 µM in assay [2] was 7.1%; in assay [1], -0.1%; in the assay with MDA-MB-453, 11%; in assay [4], 9%; with MDA-MB-361, -1.3%.
Take `CN(Cc1cccc(F)c1)C1CCN(Cc2cnc(Cl)s2)CC1`: the inhibition of growth at 5 µM was determined as 2.4% in assay [2]; 1.3% in assay [1]; 4.2% in assay [3]; 4.4% with MDA-MB-453; 5.7% in assay [4]; 3.2% in the assay with MDA-MB-361.
Regarding `COc1cc(N2CCC(N(C)Cc3cccc(Cl)c3)CC2)ncn1`, in assay [4], the inhibition of growth at 5 µM was 9.4%.
Take `CSc1ncc(CN2CCC(N(C)Cc3c(F)cccc3Cl)CC2)s1`: the inhibition of growth at 5 µM in assay [2] amounted to 49.5%; in assay [1] it was 4.5%; in assay [3], 9.2%; with MDA-MB-453, 65.3%; in assay [4], 59.9%; with MDA-MB-361, 47.2%.
In the case of `COc1nccc(N2CCC(N(C)Cc3ccccc3C#N)CC2)n1`, the inhibition of growth at 5 µM in assay [2] was 71.6%; in assay [1], 74.3%; in assay [3] it was 86.5%; in the assay on MDA-MB-453, 79.5%; in assay [4], 72.7%; with MDA-MB-361 it was 53.3%.
Take `CCOc1ncc(CN2CCC(N(C)Cc3cc(Cl)ccc3Cl)CC2)s1`: the inhibition of growth at 5 µM amounted to 5.6% in assay [2], 5.2% in assay [1], 9.4% in assay [3] and 9.6% in assay [4].
Turning to `CN(Cc1cccc(Cl)c1)C1CCN(Cc2cnc(Cl)s2)CC1`, the inhibition of growth at 5 µM is 7.1% in assay [2], 8.5% in assay [1], 8.4% in assay [4] and 9.7% in the assay with MDA-MB-361.
In the case of `Cc1ccccc1CN(C)C1CCN(Cc2cnc(Cl)s2)CC1`, the inhibition of growth at 5 µM in assay [2] was found to be 1.5%; in assay [1], 5.1%; in assay [3], 9.7%; in the assay on MDA-MB-453 it was 3.5%; in assay [4] it was 4%; with MDA-MB-361, 4.4%.
As to `COc1cc(N2CCC(N(C)Cc3ccc(C#N)cc3)CC2)ncn1`, the inhibition of growth at 5 µM in assay [1] stood at 8.8%.
Turning to `Clc1ncc(CN2CCC(NCc3ccc(Cl)c(Cl)c3)CC2)s1`, in assay [2], the inhibition of growth at 5 µM was found to be 11%.
In the case of `COc1nccc(N2CCC(N(C)Cc3cccc(F)c3)CC2)n1`, the inhibition of growth at 5 µM in assay [2] was determined as 9.9%; in assay [1], 3.9%; in assay [3], 9.2%; in the assay with MDA-MB-361, 8.5%.
Regarding `CN(Cc1ccccc1C#N)C1CCN(Cc2cnc(Cl)s2)CC1`, the inhibition of growth at 5 µM was -4.1% in assay [2]; 4.2% in assay [1]; 7.3% in assay [3]; 8.2% in the assay on MDA-MB-453; 4% in assay [4]; -8.5% in the assay with MDA-MB-361.
Take `CSc1nccc(N2CCC(N(C)Cc3cc(Cl)ccc3Cl)CC2)n1`: the inhibition of growth at 5 µM in assay [2] was 61%; in assay [1] it was 29.4%; in assay [3], 19.3%; in the assay on MDA-MB-453, 69.3%; in assay [4], 56.9%; in the assay with MDA-MB-361, 45.7%.
Consider `COc1cc(N2CCC(N(C)Cc3ccc(Cl)c(Cl)c3)CC2)ncn1`, for which the inhibition of growth at 5 µM in assay [2] was 9.8%; in assay [1] it was 28%; in assay [4] it was 9.2%; in the assay with MDA-MB-361, 6.5%.
For the compound `COc1nccc(N2CCC(N(C)Cc3cc(Cl)ccc3Cl)CC2)n1`, the inhibition of growth at 5 µM came to 27.5% in assay [2]; 11.7% in assay [1]; 24.7% in assay [3]; 50.6% in the assay on MDA-MB-453; 22.7% in assay [4]; 22% in the assay on MDA-MB-361.
On to `COc1cc(N2CCC(N(C)Cc3ccc(C)cc3)CC2)ncn1`, for which the inhibition of growth at 5 µM in assay [2] was 5%; in assay [1] it was 22%; in assay [4], 8%.

Source of the values: ChEMBL document CHEMBL3414474, “Design and synthesis of piperidine derivatives as novel human heat shock protein 70 inhibitors for the treatment of drug-resistant tumors” (Eur J Med Chem, 2015).
